Data: patent US8138191B2, “Inhibitor compounds and cancer treatment methods” (Critical Outcome Technologies Inc., priority 2007, dated 2012)
pIC50: −log10 of the molar value.

Tests used:
[1] = in vivo; conditions: both, rat, in vivo
Text: Pharmacokinetic studies in animal models provide valuable information that enables prediction of metabolism in humans. There are a large variety of animal models that allow for the pharmacokinetic evaluation of compounds by providing information on serum, plasma, and tissue levels. […] As a result, it is important to keep this phenomenon in mind during extrapolations from animal to human metabolism. An initial pharmacokinetic assessment of COTI-2, administered both intravenously and orally, in its parent formulation and as both an oxalate and tartrate salt were evaluated in rats.
A single oral or IV dose of the COTI-2 free-base or the aforementioned salt forms was administered to groups of male and female rats and blood samples collected and processed at several time-points post-treatment.

[2] = test system: H226; assay: in vitro IC50 against cancer cell lines, H226; format: cell-based; conditions: Homo sapiens, NCI-H226, 72 h; H226, NSCLC, 3 days
Method: Briefly, cells were plated in plastic tissue culture plates and grown under standard conditions for each cell line, in carbon dioxide/oxygen atmosphere in plastic tissue culture plates, in the presence of COTI-2 or COTI-219 compounds at 35° C. for 3 days. Control cultures were treated with vehicle minus compound. Cells were counted after 3 days in culture and at a cell density of no more than 80%. The following cell lines, obtained from the National Cancer Institute, were tested: human SCLC cell lines DMS153, DMS114, SHP77; human NSCLC cell lines H226, A460, A560; human breast cancer cell lines T47D, MCF7; human colon cancer cell line HT29; and, human Leukemia cell lines K562, HL60.

[3] = test system: DMS114 and SHP77 cell lines; assay: Microarray differential gene expression analysis; format: cell-based, human; conditions: 150 or 300 nM, 6 h
Method: For each cell line, four sets of microarray experiments were performed, with each set consisting of control and treated cells exposed for 6 h either to DMSO or COTI-2 at 150 or 300 nM total concentration. Total RNA was prepared with RNeasy (Qiagen) and converted to Cy3 or Cy5-labelled cRNA according to procedures provided with the linear amplification kit from Agilent Technologies. Two hundred […] of labeled cRNA were hybridized to 4×44K Agilent whole genome microarrays, the arrays were washed, scanned and relevant features were extracted according to the manufacturer's protocol and further analyzed as described by Wolber et al. (Methods in Enzymology 410:28-57), which is incorporated herein by reference in its entirety.
Cy5 and Cy3 features were extracted and normalized by median centering the expression values relative to the median value of the 8 hybridization experiments performed on each microarray slide. […] Statistically significant changes in gene expression between treatment and control groups were determined by SAM analysis using TIGR software from The Institute of Genomic Research or by t tests with false discovery correction. Only genes that were differentially expressed in all 4 biologically-independent groups were further analyzed. […] The intersection of common genes was determined using GeneVenn (http://mcbc.usm.edu/qenevenn/genevenn.htm).

S=C(N/N=C1/CCCc2cccnc21)N1CCN(c2ccccn2)CC1 [COTI-2]
bioavailability [1]: 17.7% | Tmax ([1]; po): 4 h | clearance (CL) from plasma, fold higher than the oxalate and tartrate formulations ([1]; po): approximately 2 fold | rate of absorption (Ka), fold higher than the other formulations ([1]; po): approximately 3 fold | pIC50 [2]: 4.82 | AKT gene expression [3]: down-regulated | Rictor (mTOR-Rictor) expression [3]: down-regulation of Rictor
